What was measured:
Assay in all cases: relative viability (nuclei count vs DMSO), 5 days (fraction); higher = more cells survive
A-427 = tested on: A-427
Procedure, shortened: (§1)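 Each reported value is a median over duplicate plates. It expresses relative viability: treated-well nuclei count divided by vehicle-well nuclei count. Lung cancer cell lines in 1536-well plates were dosed by pin tool a day after seeding, alone with one drug or with a fixed anchor-drug dose plus five library-drug doses (not always all listed) in √10 steps, and nuclei were counted after 5 days.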

ABC-1 = tested on: ABC-1
Procedure, shortened: as §1

COR-L23 = tested on: COR-L23
Procedure, shortened: as §1

ChaGo-K-1 = tested on: ChaGo-K-1
Procedure, shortened: as §1

EMC-BAC-2 = tested on: EMC-BAC-2
Procedure, shortened: as §1

HARA = tested on: HARA
Procedure, shortened: as §1

HCC-15 = tested on: HCC-15
Procedure, shortened: as §1

HCC-366 = tested on: HCC-366
Procedure, shortened: as §1

HCC-78 = tested on: HCC-78
Procedure, shortened: as §1

LC-2-ad = tested on: LC-2-ad
Procedure, shortened: as §1

LK-2 = tested on: LK-2
Procedure, shortened: as §1

NCI-H1650 = tested on: NCI-H1650
Procedure, shortened: as §1

NCI-H1734 = tested on: NCI-H1734
Procedure, shortened: as §1

NCI-H1944 = tested on: NCI-H1944
Procedure, shortened: as §1

NCI-H1993 = tested on: NCI-H1993
Procedure, shortened: as §1

NCI-H2009 = tested on: NCI-H2009
Procedure, shortened: as §1

NCI-H2023 = tested on: NCI-H2023
Procedure, shortened: as §1

NCI-H2228 = tested on: NCI-H2228
Procedure, shortened: as §1

NCI-H23 = tested on: NCI-H23
Procedure, shortened: as §1

NCI-H2405 = tested on: NCI-H2405
Procedure, shortened: as §1

NCI-H838 = tested on: NCI-H838
Procedure, shortened: as §1

SK-LU-1 = tested on: SK-LU-1
Procedure, shortened: as §1

UMC-11 = tested on: UMC-11
Procedure, shortened: as §1

Work on CC(C)Oc1cc(Nc2nc(N[C@@H](C)c3ccc(F)cn3)ncc2Cl)n[nH]1 [AZ23] + C[C@@H](Oc1cc(-c2cnn(C3CCNCC3)c2)cnc1N)c1c(Cl)ccc(F)c1Cl [Crizotinib] (partner 1 µM) yielded a relative viability (A-427; first compound 0.01 µM) of 0.942, a relative viability (A-427; first compound 0.03162 µM) of 0.951 and a relative viability (A-427; first compound 0.3162 µM) of 0.754. It also gave a relative viability (ABC-1; first compound 0.01 µM) of 0.752, a relative viability (ABC-1; first compound 0.03162 µM) of 1.27 and a relative viability (ABC-1; first compound 0.3162 µM) of 1.25. For the same compound, the relative viability (COR-L23; first compound 0.01 µM) was 0.763, the relative viability (COR-L23; first compound 0.03162 µM) was 0.828 and the relative viability (COR-L23; first compound 0.3162 µM) was 0.766. For the same compound, the relative viability (ChaGo-K-1; first compound 0.01 µM) was 1.37, the relative viability (ChaGo-K-1; first compound 0.03162 µM) was 1.08 and the relative viability (ChaGo-K-1; first compound 0.3162 µM) was 1.24. It also gave a relative viability (EMC-BAC-2; first compound 0.01 µM) of 0.804, a relative viability (EMC-BAC-2; first compound 0.03162 µM) of 0.817 and a relative viability (EMC-BAC-2; first compound 0.3162 µM) of 0.777. For the same compound, the relative viability (HARA; first compound 0.01 µM) was 1.2, the relative viability (HARA; first compound 0.03162 µM) was 0.904 and the relative viability (HARA; first compound 0.3162 µM) was 0.983. It also gave a relative viability (HCC-15; first compound 0.01 µM) of 1.1, a relative viability (HCC-15; first compound 0.03162 µM) of 0.881 and a relative viability (HCC-15; first compound 0.3162 µM) of 0.884. It also gave a relative viability (HCC-366; first compound 0.01 µM) of 0.688, a relative viability (HCC-366; first compound 0.03162 µM) of 1.05 and a relative viability (HCC-366; first compound 0.3162 µM) of 0.587. The relative viability (HCC-78; first compound 0.01 µM) was 0.318, the relative viability (HCC-78; first compound 0.03162 µM) was 0.39 and the relative viability (HCC-78; first compound 0.3162 µM) was 0.336. It also gave a relative viability (LC-2-ad; first compound 0.01 µM) of 0.471, a relative viability (LC-2-ad; first compound 0.03162 µM) of 0.458 and a relative viability (LC-2-ad; first compound 0.3162 µM) of 0.436. The relative viability (LK-2; first compound 0.03162 µM) was 0.223, the relative viability (LK-2; first compound 0.3162 µM) was 0.216 and the relative viability (NCI-H1650; first compound 0.01 µM) was 0.863. The relative viability (NCI-H1650; first compound 0.03162 µM) was 1.4, the relative viability (NCI-H1650; first compound 0.3162 µM) was 0.984 and the relative viability (NCI-H1734; first compound 0.01 µM) was 0.713. The relative viability (NCI-H1734; first compound 0.03162 µM) was 0.782, the relative viability (NCI-H1734; first compound 0.3162 µM) was 0.76 and the relative viability (NCI-H1944; first compound 0.01 µM) was 1.11. It also gave a relative viability (NCI-H1944; first compound 0.03162 µM) of 1.18, a relative viability (NCI-H1944; first compound 0.3162 µM) of 1.17 and a relative viability (NCI-H1993; first compound 0.01 µM) of 0.857. It also gave a relative viability (NCI-H1993; first compound 0.3162 µM) of 0.804, a relative viability (NCI-H2009; first compound 0.01 µM) of 1.05 and a relative viability (NCI-H2009; first compound 0.03162 µM) of 1.2. The relative viability (NCI-H2009; first compound 0.3162 µM) was 1.06, the relative viability (NCI-H2023; first compound 0.03162 µM) was 0.825 and the relative viability (NCI-H2023; first compound 0.3162 µM) was 0.616. For the same compound, the relative viability (NCI-H2228; first compound 0.01 µM) was 0.64, the relative viability (NCI-H2228; first compound 0.03162 µM) was 0.449 and the relative viability (NCI-H2228; first compound 0.3162 µM) was 0.33. It also gave a relative viability (NCI-H23; first compound 0.03162 µM) of 0.617, a relative viability (NCI-H23; first compound 0.3162 µM) of 0.539 and a relative viability (NCI-H2405; first compound 0.01 µM) of 0.825. It also gave a relative viability (NCI-H2405; first compound 0.03162 µM) of 0.904, a relative viability (NCI-H2405; first compound 0.3162 µM) of 0.854 and a relative viability (NCI-H838; first compound 0.01 µM) of 0.702. For the same compound, the relative viability (NCI-H838; first compound 0.03162 µM) was 0.889, the relative viability (NCI-H838; first compound 0.3162 µM) was 0.803 and the relative viability (SK-LU-1; first compound 0.01 µM) was 0.94. The relative viability (SK-LU-1; first compound 0.03162 µM) was 1.05, the relative viability (SK-LU-1; first compound 0.3162 µM) was 0.978 and the relative viability (UMC-11; first compound 0.01 µM) was 0.552. It also gave a relative viability (UMC-11; first compound 0.03162 µM) of 0.73 and a relative viability (UMC-11; first compound 0.3162 µM) of 0.555.
